One compound from patent US20170298056A1, “SMALL MOLECULE INHIBITORS OF HIV-1 ENTRY AND METHODS OF USE THEREOF” (Dana-Farber Cancer Institute, Inc., priority 2014, published 2017) can be followed below.

SMILES strings stand for the structures. pIC50: −log10 of the molar value. Like-named read-outs stand apart in the source and are kept apart here.

One series deals with PBMC. The series is described as follows: Viability assay (CellTiterGlo), PBMC. The note with it: human PBMC, range of tested concentrations. The format is cell-based. Here is the method: (§1) Viability Assay. As part of the secondary screen, cells were incubated for ˜20 hours in 384-well plates in a final volume of 45 μl growth medium at 37° C. The plate was equilibrated to room temperature, 15 μl of CellTiterGlo (Promega) was added to each well and luminescence was measured as described above. The viability assay with 18A was done in parallel to the viral infection assay for the same length of time. 18A was diluted using an HP D300 Digital Dispenser in a 96-well B&W isoplate and cells were added. After incubation of 26-30 hours (Cf2Th cells) or 40-44 hours (PBMC). 30 μl (Cf2Th cells) or 100 μl (PBMC) of CellTiterGlo was added and luminescence was measured as described above.
For orientation: In ATP-based viability assays light output follows the ATP content of the culture.

Series [1] concerns amphotropic murine leukemia virus (A-MLV). As to the kind of experiment: Viral infection assay, control virus with A-MLV envelope. The format is cell-based. Here is the method: (§2) Production of recombinant HIV-1 expressing luciferase. […] After 48 hours, the supernatant was collected, buffered with 50 mM Hepes pH 7.4 (final concentration) and centrifuged for 5 minutes at 750×g and 4° C. The virus-containing supernatant was used directly or frozen at −80° C.
(§3) Viral infection assay. Each test compound was serially diluted in DMSO in a 96-well B&W isoplate (PerkinElmer, Boston, Mass.) using an HP D300 Digital Dispenser, to a final volume of 450 nl. DMSO was used as a control. Viruses pseudotyped with a specific Env were added to each well and incubated briefly at room temperature. Cf2Th-CD4/CCR5 cells were detached with StemPro Accutase Cell Dissociation Reagent (Invitrogen, cat #A11105-01), washed once, and 5000 cells were added to each well. […] Following incubation, the medium was aspirated and cells were lysed with 30 μl of Passive Lysis Buffer (Promega, cat #E1941). The activity of the firefly luciferase, which was used as a reporter protein in the system, was measured with a Centro LB 960 luminometer (Berthold Technologies, Oak Ridge, Tenn.). One hundred microliters of assay buffer (15 mM MgSO4, 15 mM KH2PO4/K2HPO4 pH 7.8, 1 mM ATP and 1 mM DTT) was injected to each well, followed by a 50 μl injection of 1 mM Dluciferin potassium salt (BD Pharmingen, San Jose, Calif.); luminescence was measured for 2 sec. Infection of PBMC was done as above, but 20,000-40,000 cells/well and viruses concentrated by ultracentrifugation were used. After four hours of incubation with viruses, the cells were centrifuged at 200×g for 6 minutes at 4° C., resuspended in 100 μl RPMI-PBMC medium and incubated at 37° C. for an additional 36-40 hours (total 40-44 hours). Supernatant was removed after centrifugation at 400×g for 5 minutes and cells were processed to detect luciferase activity, as described above.
The effect of 18A on viral infection was tested using recombinant HIV-1 pseudotyped with the envelope glycoproteins of different primate immunodeficiency viruses or the amphotropic murine leukemia virus (A-MLV) as a control.

Another series has as its system Cf2Th-CD4/CCR5 cells. As to the kind of experiment: Viability assay (CellTiterGlo), CD4/CCR5-expressing target cells. The format is cell-based. The note with it: read-out: half-maximal cytotoxic concentration (CC50). Here is the method:
as §1

Series [2] has as its system HIV-1JR-FLΔCT Env trimer (gp41 HR1). As to the kind of experiment: CD4-induced gp41 HR1 exposure, C34-Ig binding (flow cytometry). The note with it: 100 μM 18A prior to sCD4 addition; approx. 37% with sCD4 alone. As to the method:
Flow cytometry. […] After 48-72 hours, cells were detached with 5 mM EDTA/PBS and between 0.5-1 million cells were briefly incubated with various concentrations of 18A and then with or without the indicated concentrations of sCD4. C34-Ig (at a final concentration of 20 μg/ml) or a specified antibody (at final concentration of 1 μg/ml) was added to the cells. […] Cells were washed twice and analyzed with a BD FACSCanto II flow cytometer (BD Biosciences). For analysis of resistant mutants (FIG. 5e-g), the measurements were normalized for the level of sCD4 binding of each mutant, and the response of each mutant was further normalized to that of the wild-type HIV-1JR-FL E168K+N188AΔCT Env (herein designated WTKA). […] The sCD4 IC50/sCD4 binding ratio (FIGS. 4c and e) was calculated as follows. Binding of sCD4 to different envelope mutants was measured by flow cytometry and normalized first to 2G12 binding to account for potentially different Env expression levels, and then to sCD4 binding to the wild-type HIV-1JR-FL Env. The IC50 of sCD4 for inhibition of virus infection by each mutant Env was divided by the normalized sCD4 binding to Env-expressing cells to calculate the sCD4 IC50/sCD4 binding value.

For another series, the system named is HIV-2OC1. As to the kind of experiment: Viral infection assay, HIV-2 Env. The format is cell-based. The note with it: virus with HIV-2OC1 Env. Here is the method: as §2
as §3, with “Infection of PBMC was done as above, but 20,000-40,000 cells/well and viruses concentrated by ultracentrifugation were used. After four hours of incubation with viruses, the cells were centrifuged at 200×g for 6 minutes at 4° C., resuspended in 100 μl RPMI-PBMC medium and incubated at 37° C. for an additional 36-40 hours (total 40-44 hours). Supernatant was removed after centrifugation at 400×g for 5 minutes and cells were processed to detect luciferase activity, as described above.” left out

In the next series the test system is CCR5. As to the kind of experiment: Binding of soluble gp120 to Cf2Th-CCR5 cells (flow cytometry). The arrangement: species or system human. The note with it: absence and presence of soluble CD4. Here is the method: Binding of soluble JR-FL gp120 to CCR5 was tested by incubating 1 million Cf2Th-CCR5 cells with 20 μg/mL purified gp120 in the presence or absence of 20 μg/mL sCD4 for 1 hour. After two washes, the cells were incubated with the 2G12 antibody followed by Allophycocyanin-conjugated F(ab′)2 fragment donkey anti-human IgG antibody to detect bound gp120. The cells were analyzed by FACS. All procedures were performed at room temperature.
On the technique in general: Flow cytometry measures light scatter and fluorescence of single cells or particles in a stream.

With `O=C(N/N=C/c1ccc(O)cc1)Nc1cccc2nsnc12` [Compound 18A], the “effect on viability of the cells” value in the series on PBMC was “No significant effect”. The pIC50 (commonly −log10 of the IC50, conventionally taken in molar units) was 4.25 in series [1] (Cf2Th-CD4/CCR5 cells, read-out: IC50 for the control A-MLV) and 4.25 in series [1] (Example 8 table, read-out: IC50 (A-MLV)). Further, the CC50 in the series on Cf2Th-CD4/CCR5 cells stood at 44 µM. Besides, the “cells binding C34-Ig” value in series [2] is on record as 4.7%. Further, the inhibition of infection entry in the series on HIV-2OC1 was “significantly less potent”. The “effect on gp120 binding to CCR5” value with CCR5 was “No effect”.
